# Patent EP2608671B1, “COMPOUNDS FOR TREATMENT OF CANCER” (Gtx, Inc., priority 2010, dated 2012)
# Read-outs that look alike come from different tables or passages of the source.
# Experiments:
# [1] = test system: B16-F1; assay: SRB cell growth inhibition (cytotoxicity) assay; type: cell-based, mouse; settings: Mus musculus
# From the text: (§1) The only compounds which belong to the invention are the ones falling under the scope of formula (XI).
# [2] = test system: WM-164; assay: SRB cell growth inhibition (cytotoxicity) assay; type: cell-based, human; settings: Homo sapiens
# [3] = test system: melanoma cell lines (A375, WM-164, B16-F1) and prostate cancer cell lines (LNCaP, DU 145, PC-3, PPC-1); assay: SRB cytotoxicity, melanoma and prostate cell panel (averages); type: cell-based
# From the text: as §1
# [4] = test system: PPC-1; assay: cells; settings: Homo sapiens, PPC-1, 96 h
# [5] = test system: PC-3; assay: cells; settings: Homo sapiens, PC-3, 96 h
# From the text: as §1
# Cells were stained with SRB solution.
# Cells. […] Cells between the third and fifth passages were used for experiments.
# Cell growth inhibition studies. […] Cells were stained with sulphorhodamine B (SRB) solution.
# [6] = test system: DU 145; assay: cells; settings: Homo sapiens, DU-145, 96 h
# [7] = test system: LNCaP; assay: cells; settings: Homo sapiens, 96 h
# [8] = test system: A375; assay: SRB cell growth inhibition (cytotoxicity) assay; type: cell-based, human; settings: Homo sapiens
# [9] = read-out: IC50 ± SEM (nM), PPC-1
# [10] = read-out: IC50 ± SEM (nM), PC-3
# [11] = read-out: IC50 ± SEM (nM) Du 145
# [12] = read-out: IC50 ± SEM (nM), LNCaP
# [13] = B16-F1 melanoma cells, 48 h, SRB, read-out: IC50 ± SEM (nM) B16-F1
# [14] = A-375, A375 melanoma cells, 48 h, SRB, read-out: IC50 ± SEM (nM) A375
# [15] = WM164 melanoma cells, 48 h, SRB, read-out: IC50 ± SEM (nM) WM164
# [16] = B16-F1, SRB, 48 h, Table 11, read-out: IC50 (nM), B16-F1
# [17] = A-375, SRB, 48 h, Table 11, read-out: IC50 (nM), A375
# [18] = WM164, SRB, 48 h, Tables 11, 12, read-out: IC50 (nM), WM164
# [19] = B16-F1, read-out: IC50 ± SEM (nM), B16-F1
# [20] = A-375, 96 h, read-out: IC50 ± SEM (nM), A375
# [21] = read-out: IC50 ± SEM (nM), DU 145
smiles,measurement,setting,value
"COc1ccc(-c2nc(C(=O)c3cc(OC)c(OC)c(OC)c3)c[nH]2)cc1OC [12ha, (2-(3,4-dimethoxyphenyl)-1H-imidazol-4-yl)(3,4,5-trimethoxyphenyl)methanone]",IC50,"[1]; B16-F1, 48 h, read-out: IC50 ± SEM (nM) B16-F1",1400 ± 200 nM
same,IC50,"[2]; WM164, 48 h, read-out: IC50 ± SEM (nM) WM164",191 ± 18 nM
same,IC50,"[3]; ABI compounds, Tables 11-13, read-out: IC50 (average over cell lines)",0.33 µM
"COc1cc(-c2nc(C(=O)c3ccc(F)cc3)c[nH]2)cc(OC)c1OC [12eb, (4-fluorophenyl)(2-(3,4,5-trimethoxyphenyl)-1H-imidazol-4-yl)methanone]",IC50,[4]; [9],> 10000 nM
same,IC50,[5]; [10],> 10000 nM
same,IC50,"[3]; Prostate cell, read-out: IC50 (average over cell lines)",> 10 µM
same,IC50,[6]; [11],> 10000 nM
same,IC50,[7]; [12],> 10000 nM
"COc1cc(-c2nc(C(=O)c3ccc(F)cc3)cn2S(=O)(=O)c2ccccc2)cc(OC)c1OC [11eb, (4-fluorophenyl)(1-(phenylsulfonyl)-2-(3,4,5-trimethoxyphenyl)-1H-imidazol-4-yl)methanone]",IC50,[4]; [9],> 10000 nM
same,IC50,[1]; [13],> 10000 nM
same,IC50,[8]; [14],3840 nM
same,IC50,[2]; [15],> 10000 nM
same,IC50,[5]; [10],> 10000 nM
same,IC50,[6]; [11],> 10000 nM
same,IC50,[7]; [12],> 10000 nM
"COc1cc(C(=O)c2cn(S(=O)(=O)c3ccccc3)c(-c3cc(OC)c(OC)c(OC)c3)n2)cc(OC)c1OC [11ea, (1-(phenylsulfonyl)-2-(3,4,5-trimethoxyphenyl)-1H-imidazol-4-yl)(3,4,5-trimethoxyphenyl)methanone]",IC50,[4]; [9],> 10000 nM
same,IC50,[1]; [13],> 10000 nM
same,IC50,[8]; [14],> 10000 nM
same,IC50,[2]; [15],> 10000 nM
same,IC50,[5]; [10],> 10000 nM
same,IC50,[6]; [11],> 10000 nM
same,IC50,[7]; [12],> 10000 nM
"O=C(c1ccc(F)cc1)c1cn(S(=O)(=O)c2ccccc2)c(-c2ccc(OCc3ccccc3)cc2)n1 [11jb, (2-(4-(benzyloxy)phenyl)-1-(phenylsulfonyl)-1H-imidazol-4-yl)(4-fluorophenyl)methanone]",IC50,[4]; [9],38 ± 0.2 nM
same,IC50,[1]; [13],110 ± 15 nM
same,IC50,[8]; [14],64 ± 7 nM
same,IC50,[2]; [15],48 ± 5 nM
same,IC50,[5]; [10],75 ± 0.5 nM
same,IC50,"[3]; Prostate cell, ABI compounds, Tables 11-13, read-out: IC50 (average over cell lines)",0.061 µM
same,IC50,[6]; [11],58 ± 1 nM
same,IC50,[7]; [12],35 ± 1 nM
"COc1ccc(C(=O)c2c[nH]c(-c3ccccc3)n2)cc1 [12ab, (4-methoxyphenyl)(2-phenyl-1H-imidazol-4-yl)methanone]",IC50,"[4]; read-out: IC50 (nM), PPC-1",> 10000 nM
same,IC50,[1]; [16],> 10000 nM
same,IC50,[8]; [17],> 10000 nM
same,IC50,[2]; [18],> 10000 nM
same,IC50,"[5]; read-out: IC50 (nM), PC-3",> 10000 nM
same,IC50,"[6]; read-out: IC50 (nM), Du 145",> 10000 nM
same,IC50,"[7]; read-out: IC50 (nM), LNCaP",> 10000 nM
"COc1cc(NS(=O)(=O)c2cccc(-c3ccccc3)c2)cc(OC)c1OC [4d, N-(3,4,5-Trimethoxyphenyl)biphenyl-3-sulfonamide]",IC50,[4]; [9],> 10000 nM
same,IC50,[1]; [19],> 10000 nM
same,IC50,[8]; [20],> 10000 nM
same,IC50,"[2]; WM164, SRB assay, 96 h, Table 2, read-out: IC50 ± SEM (nM), WM-164",> 10000 nM
same,IC50,[5]; [10],> 10000 nM
same,IC50,[6]; [21],> 10000 nM
same,IC50,[7]; [12],> 10000 nM
"O=C(c1ccc(F)cc1)c1c[nH]c(-c2ccccc2)n1 [12af, (4-fluorophenyl)(2-phenyl-1H-imidazol-4-yl)methanone]",IC50,"[4]; read-out: IC50 (nM), PPC-1",575 nM
same,IC50,[1]; [16],930 nM
same,IC50,[8]; [17],580 nM
same,IC50,[2]; [18],630 nM
same,IC50,"[5]; read-out: IC50 (nM), PC-3",2200 nM
same,IC50,"[6]; read-out: IC50 (nM), Du 145",846 nM
same,IC50,"[7]; read-out: IC50 (nM), LNCaP",613 nM
"O=C(c1ccc(F)cc1)c1cn(S(=O)(=O)c2ccccc2)c(-c2ccccc2C(F)(F)F)n1 [11ib, (1-(phenylsulfonyl)-2-(2-(trifluoromethyl)phenyl)-1H-imidazol-4-yl)(4-fluorophenyl)methanone]",IC50,[4]; [9],> 10000 nM
same,IC50,[1]; [13],> 10000 nM
same,IC50,[8]; [14],> 10000 nM
same,IC50,[2]; [15],> 10000 nM
same,IC50,[5]; [10],> 10000 nM
same,IC50,[6]; [11],> 10000 nM
same,IC50,[7]; [12],> 10000 nM
"COc1cc(/C(=N\O)c2csc(-c3ccccc3)n2)cc(OC)c1OC [2e-trans, (E)-(2-Phenylthiazol-4-yl)(3,4,5-trimethoxyphenyl)methanone oxime]",IC50,[4]; [9],> 10000 nM
same,IC50,[1]; [19],11400 ± 2100 nM
same,IC50,[8]; [20],7800 ± 1200 nM
same,IC50,[5]; [10],> 10000 nM
same,IC50,"[3]; Prostate cell, Table 2, read-out: IC50 range over tested melanoma and prostate cell lines",> 10 µM
same,IC50,[6]; [21],> 10000 nM
same,IC50,[7]; [12],> 10000 nM
